Measured values: patent US5563155A, “Individual stereosiomers of 7-[3-(aminoalkyl)-1-pyrrolidinyl]-quinolones and naphthyridones as antibacterial agents” (Warner-Lambert Company, priority 1995, dated 1996)
Values after ≈ are worked out from the molar mass of the structure shown. Read-outs that look alike come from different tables or passages of the source.

Assays:
Ent. cloacae MA2646 = experiment: in vitro antibacterial activity, microtitration dilution (MIC), Ent. cloacae MA2646; type: cell-based; conditions: Enterobacter cloacae, read-out: minimum inhibiting concentration (MIC)
How it was run: (§1)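 Antibacterial potency was assessed in vitro using a microtitration dilution procedure, with results given as MIC in μg/mL.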

Esch. coli Vogel [1] = experiment: in vitro antibacterial activity, microtitration dilution (MIC), Esch. coli Vogel; type: cell-based; conditions: Escherichia coli, read-out: minimum inhibiting concentration (MIC)
How it was run: as §1

Klebs. pneumoniae MGH-2 = experiment: in vitro antibacterial activity, microtitration dilution (MIC), Klebs. pneumoniae MGH-2; type: cell-based; conditions: Klebsiella pneumoniae, MGH2, read-out: minimum inhibiting concentration (MIC)
How it was run: as §1

Prot. rettgeri M 1771 = experiment: in vitro antibacterial activity, microtitration dilution (MIC), Prot. rettgeri M 1771; type: cell-based; conditions: Providencia rettgeri, M1771, read-out: minimum inhibiting concentration (MIC)
How it was run: as §1

Pseud. aeruginosa UI-18 [2] = experiment: in vitro antibacterial activity, microtitration dilution (MIC), Pseud. aeruginosa UI-18; type: cell-based; conditions: Pseudomonas aeruginosa, UI18, read-out: minimum inhibiting concentration (MIC)
How it was run: as §1

Staph. aureus H 228 = experiment: in vitro antibacterial activity, microtitration dilution (MIC), Staph. aureus H 228; type: cell-based; conditions: Staphylococcus aureus, H228, read-out: minimum inhibiting concentration (MIC)
How it was run: as §1

Staph. aureus UC-76 = experiment: in vitro antibacterial activity, microtitration dilution (MIC), Staph. aureus UC-76; type: cell-based; conditions: Staphylococcus aureus, UC76, read-out: minimum inhibiting concentration (MIC)
How it was run: as §1

Strep. faecalis MGH-2 = experiment: in vitro antibacterial activity, microtitration dilution (MIC), Strep. faecalis MGH-2; type: cell-based; conditions: Enterococcus faecalis, MGH2, read-out: minimum inhibiting concentration (MIC)
How it was run: as §1

Strep. pheumoniae SV-1 [3] = experiment: in vitro antibacterial activity, microtitration dilution (MIC), Strep. pneumoniae SV-1; type: cell-based; conditions: Streptococcus pneumoniae, SV1, read-out: minimum inhibiting concentration (MIC)
How it was run: as §1

Strep. pyogenes C-203 [4] = experiment: in vitro antibacterial activity, microtitration dilution (MIC), Strep. pyogenes C-203; type: cell-based; conditions: Streptococcus pyogenes, C203, read-out: minimum inhibiting concentration (MIC)
How it was run: as §1

Esch. coli Vogel [5] = experiment: median protective dose in mice given lethal systemic infections, Esch. coli Vogel; type: in vivo; conditions: Escherichia coli, single dose at time of challenge, read-out: median protective dose (PD50)
How it was run: (§2)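 Mice given lethal systemic infections received single compound doses at time of challenge; PD50 (mg/kg) is the median protective dose.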

Pseud. aeruginosa UI-18 [6] = experiment: median protective dose in mice given lethal systemic infections, Pseud. aeruginosa UI-18; type: in vivo; conditions: Pseudomonas aeruginosa, single dose at time of challenge, read-out: median protective dose (PD50)
Protocol: (§3) The in vivo activity is obtained when the compounds are tested according to the procedure of Miller, et al (Proc. Soc. Exp. Biol. Med. 57, 261, 1944). The median protective dose (PD50) was determined in mice given lethal systemic infections. Single doses of compound were given at time of challenge.
(§4) By use of the above methods, the following minimum inhibiting concentration values (MICs in μg/mL), PD50 's in mg/kg, no effect phototoxicity dose in mg/kg and the cytotoxicity IC50 in μg/mL were obtained for representative enantiomers of the invention and compounds of the prior art as shown in the table.
(§5) The in vivo data as PD50 s are reported below the line of MICs for the same compound.

Strep. pheumoniae SV-1 [7] = experiment: median protective dose in mice given lethal systemic infections, Strep. pneumoniae SV-1; type: in vivo; conditions: Streptococcus pneumoniae, single dose at time of challenge, read-out: median protective dose (PD50)
Protocol: as §3, §4, §5

Strep. pyogenes C-203 [8] = experiment: median protective dose in mice given lethal systemic infections, Strep. pyogenes C-203; type: in vivo; conditions: Streptococcus pyogenes, single dose at time of challenge, read-out: median protective dose (PD50)
How it was run: as §2

in vivo = experiment: in vivo; set-up: species or system mice; conditions: mouse, po
Protocol: The phototoxicity data is obtained using depilated mice. The compound was administered orally each day for four successive days, followed each day by 3 hours of UVA radiation. The mice were examined for any positive signs (redness, erythema) relative to control animals. The no effect dose and the 50% effect dose were determined. By use of the above methods, the following minimum inhibiting concentration values (MICs in μg/mL), PD50 's in mg/kg, no effect phototoxicity dose in mg/kg and the cytotoxicity IC50 in μg/mL were obtained for representative enantiomers of the invention and compounds of the prior art as shown in the table.

[9] = cytotoxicity, hamster V-79 cells, colony reduction; type: cell-based; conditions: 3 hours treatment, colonies counted after 5 days, read-out: Cytotox (cytotoxicity IC50)
Protocol: The cytotoxicity data is obtained using hamster V-79 cells. The cells were suspended in tissue culture medium and grown overnight. Cells were treated with drug for 3 hours, washed free of drug and then replated, and the colonies counted after 5 days. The concentration of drug that reduced colones by 50% relative to control was recorded.
as §4

Structure (SMILES) | MIC (Ent. cloacae MA2646) | MIC (Esch. coli Vogel [1]) | MIC (Klebs. pneumoniae MGH-2) | MIC (Prot. rettgeri M 1771) | MIC (Pseud. aeruginosa UI-18 [2]) | MIC (Staph. aureus H 228) | MIC (Staph. aureus UC-76) | MIC (Strep. faecalis MGH-2) | MIC (Strep. pheumoniae SV-1 [3]) | MIC (Strep. pyogenes C-203 [4]) | ED50 (Esch. coli Vogel [5]; PO) | ED50 (Esch. coli Vogel [5]; SC) | ED50 (Pseud. aeruginosa UI-18 [6]; UI18, PO) | ED50 (Pseud. aeruginosa UI-18 [6]; UI18, SC) | ED50 (Strep. pheumoniae SV-1 [7]; SV1, PO) | ED50 (Strep. pheumoniae SV-1 [7]; SV1, SC) | ED50 (Strep. pyogenes C-203 [8]; C203, PO) | ED50 (Strep. pyogenes C-203 [8]; C203, SC) | NOAEL at 96 h (in vivo) | CC50 at 3 h [9]
C[C@H]([C@@H]1CCN(c2nc3c(cc2F)c(=O)c(C(=O)O)cn3C2CC2)C1)N(C)C [Example 72, 3R,1R-1-cyclopropyl-7-[3-[1-(dimethylamino)ethyl]-1-pyrrolidinyl]-6-fluoro-1,4,-dihydro-4-oxo-1,8-naphthyridine-3-carboxylic acid] | 0.2 µg/mL (≈ 0.515 µM) | 0.1 µg/mL (≈ 0.257 µM) | 0.2 µg/mL (≈ 0.515 µM) | 0.8 µg/mL (≈ 2.06 µM) | 1.6 µg/mL (≈ 4.12 µM) | 0.025 µg/mL (≈ 0.0644 µM) | 0.025 µg/mL (≈ 0.0644 µM) | 0.1 µg/mL (≈ 0.257 µM) | 0.025 µg/mL (≈ 0.0644 µM) | 0.05 µg/mL (≈ 0.129 µM) | 1 mg/kg | 1 mg/kg | 17 mg/kg | 11 mg/kg | 2 mg/kg | 2 mg/kg | 2 mg/kg | 2 mg/kg | < 30 mg/kg | 120 µg/mL (≈ 309 µM)
C[C@H](N)[C@@H]1CCN(c2nc3c(cc2F)c(=O)c(C(=O)O)cn3C2CC2)C1 [Example 7, 3R,1S-1-cyclopropyl-6-fluoro-7-[3-(1-aminoethyl)-1-pyrrolidinyl]-1,4-dihydro-4-oxo-1,8-naphthyridine-3-carboxylic acid] | 0.025 µg/mL (≈ 0.0694 µM) | 0.025 µg/mL (≈ 0.0694 µM) | 0.05 µg/mL (≈ 0.139 µM) | 0.1 µg/mL (≈ 0.277 µM) | 0.4 µg/mL (≈ 1.11 µM) | 0.025 µg/mL (≈ 0.0694 µM) | – | 0.025 µg/mL (≈ 0.0694 µM) | 0.006 µg/mL (≈ 0.0166 µM) | 0.013 µg/mL (≈ 0.0361 µM) | 2 mg/kg | 0.4 mg/kg | 15 mg/kg | 4 mg/kg | 3 mg/kg | 1 mg/kg | 3 mg/kg | 1 mg/kg | 30 mg/kg | 33 µg/mL (≈ 91.6 µM)
